Experiments:
Cherry tomato = assay: Experiment 14: LCO soil application on cherry tomatoes; type: in vivo
Protocol: Cherry tomato seedlings (5-week old) were transplanted into 5″ pots in the greenhouse. LCO solutions were prepared with water and 50 ml/plant was applied to the soil in the pot after transplantation. Ripened fruit (orange or red) were collected 8 weeks after transplantation.

Cobra tomatoes = assay: Trial 1: LCO dose and delivery medium on greenhouse tomato (Cobra); type: in vivo; settings: for more flowers than other treatments and control: 50 ng LCO
Protocol: Cobra (a hybrid cultivar) was used to examine optimum application dose between 10 and 100 ng/plant at one or two applications and the LCO delivery medium. The levels chosen were the extremes of beneficial doses determined previously in tomato field trials. The delivery media tested were LCO in water, Apex and centrifuged Apex. The first application of LCO was made 10 days after transplanting. When applied a second time it was 2 weeks after the first application. The following parameters were tested: leaf number, plant height, number of cluster, number of flower, number of fruit. Observations were made continuously for approximately a two-month period, at one-week intervals until plant growth was limited by pot bound roots. The cobra seedlings were transplanted 32 days after seeding, the first application was 10 days thereafter, the second application was 14 days after the first application. The fruits were harvested 6 weeks after the second application.

sweet corn = assay: Experiment 8: foliar application of LCO on sweet corn; type: in vivo
Description: Fertilizer (36-12-18) was applied to the corn field at 500 kg/ha before seeding. A machine planter was employed to sow sweet corn grain. Plot size was 4×4.5=18 M^2, and 6 rows/plot. To protect corn ears from raccoons and other animal damage, sweet corn plants were protected with an electric fence around the plots after silking. LCO was applied once 40 days after sowing or/and twice, 40 days after sowing and 58 days after sowing at a rate of 200 L/ha for the first application and 300 L/ha for the second application. Corn was harvested 80 days after sowing, from the two middle rows and corn ears reaching 12 cm or longer were counted as marketable.

Marigolds = assay: Experiment 12: LCO application on marigolds; type: in vivo, Marigold; settings: best treatments
Protocol: Marigolds were planted in 32-cell flat and LCO was applied foliarly to plants 4 weeks after sowing (4 flats/treatment, 1 ml/plant applied containing various levels of LCO). Data collection started from the first flower appearing.

## Lipo-chitooligosaccharides [LCO]
Cherry tomato
  dose with best fruit enhancement at the early stage: 10 ng per plant
Cobra tomatoes; 10 ng, Dec. 30
  Number of Flowers/Plant: 1.2
Cobra tomatoes; 10 ng, Jan. 07
  Number of Flowers/Plant: 2.4
  Number of Fruit/Plant: 0.3
Cobra tomatoes; 10 ng, Jan. 15
  Number of Flowers/Plant: 4.4
  Number of Fruit/Plant: 1.8
Cobra tomatoes; 10 ng, Jan. 22
  Number of Flowers/Plant: 5.6
  Number of Fruit/Plant: 2.1
Cobra tomatoes; 10 ng, Jan. 31
  Number of Flowers/Plant: 8.1
  Number of Fruit/Plant: 2.5
Cobra tomatoes; 10 ng, Mean of bases
  Fruit Weight: 87.09 Gram/Plant
Cobra tomatoes; 10 ng, base Bacterial Camer
  Fruit Weight: 97.97 Gram/Plant
Cobra tomatoes; 10 ng, base Bacterial Supernatent
  Fruit Weight: 67.2 Gram/Plant
Cobra tomatoes; 10 ng, base Water
  Fruit Weight: 96.11 Gram/Plant
Cobra tomatoes; 50 ng LCO treatment
  early yield (fruit weight) vs untreated control: statistically significant effect
Cobra tomatoes; January 15
  more flowers than other treatments and control: 21%
Cobra tomatoes; January 22
  more flowers than other treatments and control: 14%
Cobra tomatoes; 50 ng, Dec. 30
  Number of Flowers/Plant: 0.97
Cobra tomatoes; 50 ng, Jan. 07
  Number of Flowers/Plant: 2.5
  Number of Fruit/Plant: 0.33
Cobra tomatoes; 50 ng, Jan. 15
  Number of Flowers/Plant: 5.2
  Number of Fruit/Plant: 2.2
Cobra tomatoes; 50 ng, Jan. 22
  Number of Flowers/Plant: 6.7
  Number of Fruit/Plant: 2.5
Cobra tomatoes; 50 ng, Jan. 31
  Number of Flowers/Plant: 8.7
  Number of Fruit/Plant: 2.9
Cobra tomatoes; 50 ng, Mean of bases
  Fruit Weight: 104.26 Gram/Plant
Cobra tomatoes; 50 ng, base Bacterial Camer
  Fruit Weight: 103.32 Gram/Plant
Cobra tomatoes; 50 ng, base Bacterial Supernatent
  Fruit Weight: 100.48 Gram/Plant
Cobra tomatoes; 50 ng, base Water
  Fruit Weight: 108.99 Gram/Plant
Cobra tomatoes; 100 ng, Dec. 30
  Number of Flowers/Plant: 0.9
Cobra tomatoes; 100 ng, Jan. 07
  Number of Flowers/Plant: 2.2
  Number of Fruit/Plant: 0.37
Cobra tomatoes; 100 ng, Jan. 15
  Number of Flowers/Plant: 4.4
  Number of Fruit/Plant: 1.7
Cobra tomatoes; 100 ng, Jan. 22
  Number of Flowers/Plant: 6.2
  Number of Fruit/Plant: 2.1
Cobra tomatoes; 100 ng, Jan. 31
  Number of Flowers/Plant: 8.7
  Number of Fruit/Plant: 2.6
Cobra tomatoes; 100 ng, Mean of bases
  Fruit Weight: 87.99 Gram/Plant
Cobra tomatoes; 100 ng, base Bacterial Camer
  Fruit Weight: 66.26 Gram/Plant
Cobra tomatoes; 100 ng, base Bacterial Supernatent
  Fruit Weight: 109.13 Gram/Plant
Cobra tomatoes; 100 ng, base Water
  Fruit Weight: 88.57 Gram/Plant
Cobra tomatoes; Trial 1, FIG. 5, Table 3
  advance of flowering over control: 4 to 5 days
Cobra tomatoes; Trial 1, second graph
  advance in early fruiting over control: 8 to 9 days
Cobra tomatoes; three to four weeks after application
  optimal application (early fruit set): approximately 50 ng per plant
Sweet corn; 10^−7M once
  Average Length (cm)/ear: 13.12 c cm
  Ear No/plant: 0.934
  Ear Weight (kg)/ha: 4383.3 kg/ha
  Ear/ha: 65416.7 ab /ha
  Marketable ears/ha: 25000.0 /ha
Sweet corn; 10^−7M twice
  Average Length (cm)/ear: 13.81 ab cm
  Ear No/plant: 0.935
  Ear Weight (kg)/ha: 5000.0 kg/ha
  Ear/ha: 70833.3 a /ha
  Marketable ears/ha: 30416.7 /ha
Sweet corn; 10^−8M once
  Average Length (cm)/ear: 13.24 bc cm
  Ear No/plant: 0.905
  Ear Weight (kg)/ha: 4800.0 kg/ha
  Ear/ha: 67083.3 ab /ha
  Marketable ears/ha: 26250.0 /ha
Sweet corn; 10^−8M twice
  Average Length (cm)/ear: 13.64 abc cm
  Ear No/plant: 0.856
  Ear Weight (kg)/ha: 5150.0 kg/ha
  Ear/ha: 62083.3 ab /ha
  Marketable ears/ha: 30000.0 /ha
Sweet corn; 10^−9M once
  Average Length (cm)/ear: 13.68 abc cm
  Ear No/plant: 0.928
  Ear Weight (kg)/ha: 4266.7 kg/ha
  Ear/ha: 68333.3 a /ha
  Marketable ears/ha: 29166.7 /ha
Sweet corn; 10^−9M twice
  Average Length (cm)/ear: 13.43 bc cm
  Ear No/plant: 0.886
  Ear Weight (kg)/ha: 4033.3 kg/ha
  Ear/ha: 56666.7 bc /ha
  Marketable ears/ha: 25000.0 /ha
Sweet corn; foliar application in the range of 10^−8-10^−7M
  total number of sweet corn ears: significantly increased
Marigolds
  advanced flowering: 2 days
  increase in number of flowers at 25 days: 8%

— patent US20130244879A1, “USE OF LIPO-CHITOOLIGOSACCHARIDES TO INITIATE EARLY FLOWERING AND FRUIT DEVELOPMENT IN PLANTS AND RELATED METHODS AND COMPOSITIONS” (NOVOZYMES BIOLOGICALS HOLDING A/S, priority 2003, published 2013)
